Reference: US8822414B2, “Heterocyclic compounds suitable for the treatment of dyslipidemia” (Cadila Healthcare Limited, priority 2010, dated 2014)

Key:
[1] = target: pro-protein convertase of the subtype nine binding to recombinant LDLR-AB domain (Homo sapiens, UniProt Q8NBP7); test: in vitro quantitative solid phase binding assay (ELISA) of the subtype nine pro-protein convertase to immobilized LDLR; settings: for inhibition at 1 µM: Concentration 1 μM; for inhibition at 10 µM: Concentration 10 μM; for inhibition at 100 µM: Concentration 100 μM
Description: The in vitro binding assay described hereinafter is a quantitative solid phase binding assay for determining the efficacy of the compounds. Plates were pre-coated with a recombinant LDLR-AB domain, which binds to the gene pro-protein convertase of the subtype nine. Test compound at different concentrations was added to the subtype gene and added to LDLR immobilized on the wells. The amount of bound gene is measured by binding it with biotinylated anti-His-tag monoclonal antibody, followed by binding with horseradish peroxidase conjugated streptavidin substrate. The color was quantified by ELISA reader at […] which reflects the relative amount of “the gene” that binds to LDLR in presence and absence of the inhibitor. EC50 values were calculated by nonlinear regression analysis using graph pad prism software. Each concentration point represents values in duplicates.

[2] = tested on: High Fat Diet C57 Mice; test: LDL-C lowering activity in high fat diet C57 mice; assay type: in vivo; settings: C57 mice on high fat diet, dose 30 mg, orally once a day, day 28 of treatment
Description: The in-vivo LDL-c lowering for test compound was tested in C57 mice which were kept on high fat diet for 4 weeks and the blood was collected by retro-orbital sinus puncture method under light ether anesthesia on day 0 (pretreatment). Animal are grouped based on LDL-C levels, after that 4-6 week treatment with vehicle or test compound orally at a dose of 30 mpk dose once a day was given. On completion of treatment on day 28 of the treatment the blood was collected for LDL-C levels measurement. The percent change in LDL-C in test compound group Vs Vehicle group was calculated.

Chain of pro-protein convertase of the subtype nine binding to recombinant LDLR-AB domain (Q8NBP7 153-692): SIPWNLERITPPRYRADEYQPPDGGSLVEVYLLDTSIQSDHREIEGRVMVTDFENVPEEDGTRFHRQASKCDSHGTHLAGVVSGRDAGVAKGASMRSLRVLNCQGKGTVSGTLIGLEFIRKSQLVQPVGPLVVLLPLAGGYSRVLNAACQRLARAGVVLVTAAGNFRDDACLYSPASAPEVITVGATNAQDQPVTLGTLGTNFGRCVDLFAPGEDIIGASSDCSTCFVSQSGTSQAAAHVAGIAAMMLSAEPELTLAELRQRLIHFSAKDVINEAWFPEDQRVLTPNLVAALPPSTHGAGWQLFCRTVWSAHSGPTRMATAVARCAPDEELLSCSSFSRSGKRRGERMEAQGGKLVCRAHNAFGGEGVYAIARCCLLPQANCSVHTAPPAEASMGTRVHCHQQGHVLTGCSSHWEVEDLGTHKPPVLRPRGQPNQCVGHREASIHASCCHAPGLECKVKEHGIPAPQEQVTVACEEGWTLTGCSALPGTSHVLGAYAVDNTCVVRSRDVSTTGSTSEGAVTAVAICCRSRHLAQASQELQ
Chain of pro-protein convertase of the subtype nine binding to recombinant LDLR-AB domain (Q8NBP7 31-152 partner limits assumed): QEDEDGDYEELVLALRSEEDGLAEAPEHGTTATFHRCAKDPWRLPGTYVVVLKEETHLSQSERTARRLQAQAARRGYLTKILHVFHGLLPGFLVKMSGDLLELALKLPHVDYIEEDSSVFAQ

Compound | inhibition at 1 µM [1] | inhibition at 10 µM [1] | inhibition at 100 µM [1] | % Change Vs Vehicle Control LDL-C [2] | % Change Vs Vehicle Control TC [2]
CCC(=NOCc1ccc(C(F)(F)F)cc1)c1ccc(OCC(=O)NCC2CCOCC2)cc1 [Example 1, N-((tetrahydro-2H-pyran-4-yl)methyl)-2-(4-(1-(((4-(trifluoromethyl)benzyl)oxy)imino)propyl)phenoxy)acetamide] | 29% | 35% | 57% | −48.8 ± 4.2% | −11.8 ± 2.7%
CC(=NOCc1ccc(C(F)(F)F)cc1)c1ccc(OCC(=O)NCC2CCOCC2)nc1 [Example 3, N-((tetrahydro-2H-pyran-4-yl)methyl)-2-((5-(1-(((4-(trifluoromethyl)benzyl)oxy)imino)ethyl)pyridin-2-yl)oxy)acetamide] | 28% | 41% | 54% | −74.6 ± 2.0% | −33.6 ± 2.0%
CC(=NOCc1ccc(C(F)(F)F)cc1)c1ccc(OCC(=O)NCC2CCOCC2)cc1 [Example 18, N-((tetrahydro-2H-pyran-4-yl)methyl)-2-(4-(1-(((4-(trifluoromethyl)benzyl)oxy)imino)ethyl)phenoxy)acetamide] | 16% | 38% | 63% | −75.2 ± 3.5% | −41.6 ± 1.9%
CCC(=NOCc1ccc(C(F)(F)F)cc1)c1ccc(OCC(=O)NCC2CCOCC2)nc1 [Example 22, N-((tetrahydro-2H-pyran-4-yl)methyl)-2-((5-(1-(((4-(trifluoromethyl)benzyl)oxy)imino)propyl)pyridin-2-yl)oxy)acetamide] | 29% | 46% | 46% | −64.6 ± 4.1% | −21.5 ± 2.8%
O=C(COc1ccc(C(CO)=NOCc2ccc(C(F)(F)F)cc2)cc1)NCC1CCOCC1 [Example 31, 2-(4-(2-hydroxy-1-(((4-(trifluoromethyl)benzyl)oxy)imino)ethyl)phenoxy)-N-((tetrahydro-2H-pyran-4-yl)methyl)acetamide] | 15% | 20% | 29% | −30.6 ± 3.6% | −3.5 ± 3.4%
O=C(COc1ccc(C(Cc2ccccc2)=NOCc2ccc(OC(F)(F)F)cc2)cc1)NCC1CCOCC1 [Example 39, 2-(4-(2-phenyl-1-(((4-(trifluoromethoxy)benzyl)oxy)imino)ethyl)phenoxy)-N-((tetrahydro-2H-pyran-4-yl)methyl)acetamide] | – | 33% | 42% | – | –
COc1ccc(CON=C(Cc2ccccc2)c2ccc(OCC(=O)NCC3CCOCC3)c(C)c2)cc1 [Example 40, 2-(4-(1-(((4-methoxybenzyl)oxy)imino)-2-phenylethyl)-2-methylphenoxy)-N-((tetrahydro-2H-pyran-4-yl)methyl)acetamide] | – | 20% | 47% | – | –
COc1ccc(CON=C(Cc2ccccc2)c2ccc(OCC(=O)NCC3CCOCC3)cc2)cc1 [Example 41, 2-(4-(1-(((4-methoxybenzyl)oxy)imino)-2-phenylethyl)phenoxy)-N-((tetrahydro-2H-pyran-4-yl)methyl)acetamide] | 10% | – | 19% | – | –
CCC(=NOCc1ccc(S(C)(=O)=O)cc1)c1ccc(OCC(=O)NCC2CCOCC2)cc1 [Example 42, 2-(4-(1-(((4-(methylsulfonyl)benzyl)oxy)imino)propyl)phenoxy)-N-((tetrahydro-2H-pyran-4-yl)methyl)acetamide] | – | 9% | 51% | – | –
O=C(COc1ccc(C(Cc2ccccc2)=NOCc2ccccn2)cc1)NCC1CCOCC1 [Example 43, 2-(4-(2-phenyl-1-((pyridin-2-ylmethoxy)imino)ethyl)phenoxy)-N-((tetrahydro-2H-pyran-4-yl)methyl)acetamide] | – | 15% | 27% | – | –
O=C(COc1ccc2c(c1)CCCC2=NOCc1ccc(C(F)(F)F)cc1)NCC1CCOCC1 [Example 48, N-((tetrahydro-2H-pyran-4-yl)methyl)-2-((5-(((4-(trifluoromethyl)benzyl)oxy)imino)-5,6,7,8-tetrahydronaphthalen-2-yl)oxy)acetamide] | 17% | 42% | 64% | – | –
O=C(COc1ccc2c(c1)CCCC2=NOCc1ccc(Cl)cc1)NCC1CCOCC1 [Example 49, 2-((5-(((4-chlorobenzyl)oxy)imino)-5,6,7,8-tetrahydronaphthalen-2-yl)oxy)-N-((tetrahydro-2H-pyran-4-yl)methyl)acetamide] | – | 7% | 11% | – | –
